According to PubChem BioAssay AID493010 (Sanford-Burnham Center for Chemical Genomics, 2011):

tested on: 1x PBS pH 7.4 stability, LC/MS/MS, 48 h RT; assay: percent parent left in PBS – biochemical, 1x PBS, pH 7.4, ADME assay (AID 493010); conditions: stronger effect = lower value

| SMILES | percent remaining [%] |
| --- | --- |
| COc1cccc(C2=NN(c3ccc(S(N)(=O)=O)cc3)C(c3ccc(Br)cc3)C2)c1 (centres undefined) | 10.6 |
| COc1ccc(C2CC(c3ccccc3)=NN2c2ccc(S(N)(=O)=O)cc2)cc1 (centres undefined) | 27 |
| CC(C)(C)c1ccc(C(=O)Nc2cc(Cl)c(Cl)cc2C(=O)O)cc1 | 124 |
| CC(C)(C)c1ccc(C(=O)Nc2cc(Cl)c(Br)cc2C(=O)O)cc1 | 108 |
